Measurements reported in US4985547A, “External skin care preparation” (Kao Corporation, priority 1987, dated 1991).

Experiments:
horny layer = experiment: Skin conductance (water content of horny layer) after two-week coating on cheeks; format: in vivo, women; set-up: key: conductance meter reading; ≤5 = severe roughness, ≥20 = no roughness; settings: Invention Product 1: vaseline and compound 3:1 by weight; two weeks; 20° C., 40% humidity; 5 and smaller = severe roughness, 20 or greater = no substantial roughness
From the text: (§1) Compounds Ia1 -Ia18 prepared respectively in Referential Examples 1, 2 and 3 and following the procedures of these referential examples, compounds Ib1 -Ib5 prepared respectively in Referential Example 4 and following the procedure of the referential example, compounds Id1 -Id5 prepared respectively in Referential Example 5 and following the procedure of the referential example, compounds Ie1 -Ie4 prepared respectively in Referential Examples 6-9, and conventional compounds Ic1 -Ic13, Ie5 -Ie14 and II1 -II12 were used separately. Mixtures (Invention Products 1), each of which had been formulated by mixing vaseline and the compound (I or II) at a weight ratio of 3:1, and vaseline (Comparative Product 1) were evaluated in skin conductance and skin roughness by the following methods.
(§2) Chosen as volunteers in winter were 10 women of 20-50 years of old who had skin roughness on their both cheeks. Different external skin care preparations were coated separately on the left and right cheeks of each volunteer for two weeks. On the following day of the completion of the two-week coating test, tests were conducted with respect to the following properties.
After washing the face with warm water of 37° C., each volunteer was allowed to rest for 20 minutes in a room which was air-conditioned at 20° C. and 40% humidity. The water content of their horny layer was measured by a skin conductance meter (manufactured by IBS Company). A smaller conductance value indicates greater skin roughness. Conductance values of 5 and smaller indicate severe skin roughness. On the contrary, no substantial skin roughness is observed where this value is 20 or greater.

skin roughness = experiment: Score of skin roughness, visual ranking after two-week coating on cheeks; format: in vivo, women; settings: compound 1.0 wt. %, average, 0 = none, 4 = severe
From the text: as §1, §2
Skin roughness was observed visually and ranked in accordance with the following standard. Each score was indicated by an average value.
Score Ranking of skin roughness
0 No skin roughness was observed.
1 Slight skin roughness was observed.
2 Skin roughness was observed.
3 Rather severe skin roughness was observed.
4 Severe skin roughness was observed.
Using separately the compounds used in Example 1, external skin care preparations (emulsified cosmetic preparations) of their corresponding compositions shown below in Table 2 were formulated. Their effects for the improvement of skin roughness were evaluated in the same manner as in Example 1.

[1] = Invention product 2: emulsified cosmetic, glyceryl ether 2.0 wt. %
[2] = Invention product 3: emulsified cosmetic, arginine monocetylphosphate 2.0 wt. %
[3] = Invention product 4: emulsified cosmetic, polyoxyethylene (20) sorbitan stearate 1.0 and sorbitan monostearate 1.0 wt. %

| SMILES | Skin conductance (horny layer) | Score of skin roughness (skin roughness; [1]) | Score of skin roughness (skin roughness; [2]) | Score of skin roughness (skin roughness; [3]) |
| --- | --- | --- | --- | --- |
| CCCCCCCCCCCCCCCCOCC(O)CN(CCO)CC(O)COCCCCCCCCCCCCCCCC (stereo not drawn) [Compound II1] | 18 | 0.1 | 0.3 | 0.8 |
| CCCCCCCCCCOCC(O)CN(CCO)CC(O)COCCCCCCCCCC (stereo not drawn) [Compound II2] | 8 | 0.8 | 1.0 | 1.2 |
| CCCCCCCCCCCCCCCCCCOCC(O)CN(CCO)CC(O)COCCCCCCCCCC (stereo not drawn) [Compound II3] | 11 | 0.5 | 0.8 | 1.1 |
| CCCCCCCCCCCCCCCCCCOCC(O)CN(CCO)CC(O)COCCCCCCCCCCCCCCCCCC (stereo not drawn) [Compound II4] | 21 | 0.1 | 0.3 | 0.7 |
| CCCCCCCCCCOCC(O)CN(CC(=O)O)CC(O)COCCCCCCCCCC (stereo not drawn) [Compound II6] | 7 | 0.8 | 1.0 | 1.2 |
| CCCCCCCCCCCCCCCCCCOCC(O)CN(CC(=O)O)CC(O)COCCCCCCCCCC (stereo not drawn) [Compound II7] | 10 | 0.5 | 0.8 | 1.1 |
| CCCCCCCCCCCCCCCCCCOCC(O)CN(CC(=O)O)CC(O)COCCCCCCCCCCCCCCCCCC (stereo not drawn) [Compound II8] | 20 | 0.2 | 0.4 | 0.8 |
| CCCCCCCCCCCCCCCCOCC(O)CN(CC(=O)O)CC(O)COCCCCCCCCCCCCCCCC (stereo not drawn) [Compound II9] | 17 | 0.1 | 0.3 | 0.9 |
| CCCCCCCCCCOCC(O)CN(CC(O)COCCCCCCCCCC)C(C)=O (stereo not drawn) [Compound II10] | 9 | 0.8 | 1.1 | 1.2 |
| CCCCCCCCCCCCCCCCCCOCC(O)CN(CC(O)COCCCCCCCCCC)C(C)=O (stereo not drawn) [Compound II11] | 12 | 0.4 | 0.8 | 1.2 |
| CCCCCCCCCCCCCCCCCCOCC(O)CN(CC(O)COCCCCCCCCCCCCCCCCCC)C(C)=O (stereo not drawn) [Compound II12] | 20 | 0.2 | 0.4 | 0.8 |
| CCCCCCCCCCCCCCCCOCC(O)CN(CCCO)C(=O)CCCCCCCCCCCCCCC (stereo not drawn) [Compound Ia1, N-(3-hexadecyloxy-2-hydroxypropyl)-N-3-hydroxypropylhexadecanamide] | 20 | 0.2 | 0.4 | 0.8 |
| CCCCCCCCCCCCCCCCOCC(O)CN(CCCCCCO)C(=O)CCCCCCCCCCCCCCC (stereo not drawn) [Compound Ia2, N-(3-hexadecylocy-2-hydroxypropyl)-N-6-hydroxyhexylhexadecanamide] | 18 | 0.3 | 0.5 | 1.0 |
| CCCCCCCCCCOCC(O)CN(CCCO)C(=O)CCCCCCCCC (stereo not drawn) [Compound Ia3] | 10 | 0.7 | 1.0 | 1.3 |
| CCCCCCCCCCCCCCCCCC(=O)N(CCCO)CC(O)COCCCCCCCCCC (stereo not drawn) [Compound Ia4] | 13 | 0.5 | 0.7 | 1.1 |
| CCCCCCCCCCCCCCCCCCOCC(O)CN(CCCO)C(=O)CCCCCCCCC (stereo not drawn) [Compound Ia5] | 17 | 0.3 | 0.5 | 1.0 |
| CCCCCCCCCCCCCCCCCCOCC(O)CN(CCCO)C(=O)CCCCCCCCCCCCCCCCC (stereo not drawn) [Compound Ia6] | 23 | 0.1 | 0.3 | 0.7 |

| SMILES | Skin conductance (horny layer) | Score of skin roughness (skin roughness; [1]) | Score of skin roughness (skin roughness; [2]) | Score of skin roughness (skin roughness; [3]) |
| --- | --- | --- | --- | --- |
| CCCCCCCCCCCCCCCCCC(=O)N(CCCCCCO)CC(O)COCCCCCCCCCC (stereo not drawn) [Compound Ia7] | 11 | 0.6 | 0.9 | 1.2 |
| CCCCCCCCCCCCCCCCCCOCC(O)CN(CCCCCCO)C(=O)CCCCCCCCCC (stereo not drawn) [Compound Ia8] | 13 | 0.5 | 0.7 | 1.1 |
| CCCCCCCCCCCCCCCCCCOCC(O)CN(CCCCCCO)C(=O)CCCCCCCCCCCCCCCCC (stereo not drawn) [Compound Ia9] | 20 | 0.2 | 0.4 | 0.9 |
| CCCCCCCCCCCCCCCCOCC(O)CN(CC(O)CO)C(=O)CCCCCCCCCCCCCCC (stereo not drawn) [Compound Ia10, N-(3-hexadecyloxy-2-hydroxypropyl)-N-2,3-dihydroxypropylhexadecanamide] | 22 | 0.1 | 0.3 | 0.6 |
| CCCCCCCCCCCCCCCCCC(=O)N(CC(O)CO)CC(O)COCCCCCCCCCC (stereo not drawn) [Compound Ia11] | 19 | 0.3 | 0.5 | 0.8 |
| CCCCCCCCCCCCCCCCCCOCC(O)CN(CC(O)CO)C(=O)CCCCCCCCC (stereo not drawn) [Compound Ia12] | 18 | 0.3 | 0.5 | 0.9 |
| CCCCCCCCCCCCCCCCCCOCC(O)CN(CC(C)O)C(=O)CCCCCCCCCCCCCCCCC (stereo not drawn) [Compound Ia13] | 13 | 0.5 | 0.7 | 1.1 |
| CCCCCCCCCCCCCCCCCCOCC(O)CN(C(=O)CCCCCCCCCCCCCCCCC)C(C)(CO)CO (stereo not drawn) [Compound Ia14] | 23 | 0.1 | 0.3 | 0.6 |
| CCCCCCCCCCCCCCCCCCOCC(O)CN(C(=O)CCCCCCCCCCCCCCCCC)C(C)(C)CO (stereo not drawn) [Compound Ia15] | 13 | 0.5 | 0.7 | 1.0 |
| CCCCCCCCCCCCCCCCCCOCC(O)CN(C(=O)CCCCCCCCCCCCCCCCC)C(C)CO (stereo not drawn) [Compound Ia16] | 15 | 0.4 | 0.6 | 0.9 |
| CCCCCCCCCCCCCCOCC(O)CN(C(=O)CCCCCCCCC)C(CO)(CO)CO (stereo not drawn) [Compound Ia17] | 20 | 0.2 | 0.4 | 0.7 |
| CCCCCCCCCCCCCCCCOCC(O)CN(CCOCCO)C(=O)CCCCCCCCCCCCCCC (stereo not drawn) [Compound Ib1, N-(3-hexadecyloxy-2-hydroxypropyl)-N-2-hydroxyethoxyethylhexadecanamide] | 20 | 0.1 | 0.2 | 0.7 |
| CCCCCCCCCCOCC(O)CN(CCOCCO)C(=O)CCCCCCCCC (stereo not drawn) [Compound Ib2] | 10 | 0.8 | 1.0 | 1.2 |
| CCCCCCCCCCCCCCCCCCOCC(O)CN(CCOCCO)C(=O)CCCCCCCCC (stereo not drawn) [Compound Ib3] | 14 | 0.6 | 0.9 | 1.1 |
| CCCCCCCCCCCCCCCCCC(=O)N(CCOCCO)CC(O)COCCCCCCCCCC (stereo not drawn) [Compound Ib4] | 17 | 0.4 | 0.6 | 0.9 |
| CCCCCCCCCCCCCCCCCCOCC(O)CN(CCOCCO)C(=O)CCCCCCCCCCCCCCCCC (stereo not drawn) [Compound Ib5] | 23 | 0.2 | 0.4 | 0.8 |
| CCCCCCCCCCCCCCCCOCC(O)CN(CCOP(=O)([O-])OCC[N+](C)(C)C)C(=O)CCCCCCCCCCCCCCC (stereo not drawn) [Compound Ie7] |  | 0.5 | 0.7 | 1.0 |
